Experimental data published in patent US20250066320A1, “Active Ingredients with Sialagogue and Tingling/Fizzy Effect, and Preparations Containing Same” (Symrise AG, priority 2021, published 2025).

Experiment: Sensory tasting of the active ingredients (mouth-watering and/or tingling effect) by a trained expert panel
Format: in vivo, human
Details: for Sensory Rating (profile in words): 3 to 7 tasters; for Sensory Rating: intensity of mouth-watering and/or tingling/fizzing effect (figure in brackets): 50 ppm, scale of 1 (very weak) to 10 (very strong)
Procedure: The sensory tasting of the active ingredients according to the invention was carried out as follows: • (1) The active ingredients were each prepared in a 5% sugar solution or in an unflavored standard fondant mass. Fondant is the name for a soft, pasty sugar mass that is used to make various confectionery products. Fondant is made from water and sucrose as well as glucose syrup, invert sugar cream and/or sugar alcohols (e.g., sorbitol or mannitol). The mixture is boiled and then processed into a soft paste by kneading it vigorously and cooling it quickly. • (2) The concentration of the active ingredients was 25 or 50 ppm. • (3) The test samples were tested under practical conditions by a panel of experts with sensory training. For tasting, 3 to 7 tasters each rinsed their mouths with approx. 5 ml of the sugar solution and spat the solution out again. The mouth-watering and/or tingling effect was assessed on a scale of 1 (very weak) to 10 (very strong) and the profile evaluated.

[1] = 50 ppm in 5% sugar solution or unflavored fondant mass
[2] = 25 ppm in 5% sugar solution or unflavored fondant mass

SMILES | Sensory Rating (profile in words) [1] | Sensory Rating: intensity of mouth-watering and/or tingling/fizzing effect (figure in brackets) | Sensory Rating (profile in words) [2]
COc1ccc(C(=O)N2CCN(Cc3ccccc3)CC2)cc1 [Compound 40, (4-benzylpiperazin-1-yl)-(4-methoxy-phenyl)methanone] | mouth-watering, neutral, slightly tingling/ fizzing (1-2) | mouth-watering, neutral, slightly tingling/ fizzing (1-2) | –
O=C(c1ccccc1)N1CCN(CCCc2ccccc2)CC1 [Compound 21, Phenyl-[4-(3-phenylpropyl)piperazin-1-yl] methanone] | slightly tingling/ fizzing and mouth-watering | 2-3 | sweet, fruity, slightly tingling/ fizzing
COc1ccc(C(=O)N2CCC(CCCc3ccccc3)CC2)cc1OC [Compound 30, (3,4-Dimethoxy-phenyl)-[4-(3-phenyl-propyl)-1-piperidyl]methanone] | very slight tingling/fizzing and mouth-watering, dry in the mouth | – | –
O=C(c1ccccc1)N1CCN(CCC2CCCCC2)CC1 [Compound 19, [4-(2-cyclo-hexylethyl)piperazin-1-yl]-phenyl-methanone] | of mushrooms, fruity, slightly metallic taste, slightly tingling/ fizzing | 1-2 | fruity, slightly mouth-watering
COc1ccc(C(=O)N2CCC(CCCc3ccccc3)CC2)cc1 [Compound 37, (4-Methoxy-phenyl)-[4-(3-phenyl-propyl)-1-piperidyl]methanone] | slightly tingling/ fizzing (2), light fruity note | slightly tingling/ fizzing (2), light fruity note | –
CCOc1ccc(C(=O)N2CCN(CCCc3ccccc3)CC2)cc1 [Compound 46, (4-ethoxyphenyl)-[4-(3-phenyl-propyl)piperazin-1-yl]methanone] | strong, bitter, metallic and tingling/fizzing (7), and mouth-watering effect | 7 | metallic, slightly numbing, tingling and mouth- watering effect
COc1ccc(C(=O)N2CCCN(CCc3ccccc3)CC2)cc1OC [Compound 32, (3,4-Dimethoxy-phenyl)-[4-(2-phenyl-ethyl)-1,4-diazepan-1-yl]methanone] | very slightly tingling/ fizzing (1), slightly metallic taste | very slightly tingling/ fizzing (1), slightly metallic taste | –
COc1ccc(C(=O)N2CCN(CCCc3ccccc3)CC2)cc1 [Compound 38, (4-Methoxy-phenyl)-[4-(3-phenylpropyl)piperazin-1-yl] methanone] | remarkably tingling/fizzing (6), numbing, Increasing effect over time | 6 | slightly mouth-watering, anesthetic
O=C(c1ccccc1)N1CCCN(CCc2ccccc2)CC1 [Compound 22, Phenyl-[4-(2-phenyl-ethyl)-1,4-diazepan-1-yl] methanone] | very light metallic taste, remarkably mouth-watering and tingling/ fizzing | 4-5 | floral, linalool flavor
COc1ccc(C(=O)N2CCN(Cc3ccccc3)CC2)cc1OC [Compound 33, (4-benzylpiperazin-1-yl)-(3,4-dimethoxy-phenyl)methanone] | very slightly tingling/ fizzing (1-2), slightly like marzipan | very slightly tingling/ fizzing (1-2), slightly like marzipan | –
O=C(c1ccccc1)N1CCN(CCc2ccccc2)CC1 [Compound 18, Phenyl-[4-(2-phenyl-ethyl)piperazin-1-yl]methanone] | slightly tingling/ fizzing and mouth-watering | 2-3 | no effect
